Here are results for one compound from patent publication US5900434A, “Method for inhibiting the production of interleukin-1 or tumor necrosis factor-α by administering acanthoic acid” (Korea Institute of Science and Technology, priority 1994, dated 1999).

The subject of assay [1] is H2O2 production in human monocytes and macrophages. Briefly: Production of H2O2 in silica-stimulated human monocytes and macrophages. The format is cell-based. Particulars: 10 μg/ml, 1 hour, 100 μg/ml silica, FIG. 5. Here is the method:
Normal human peripheral blood was heparin-treated and diluted with equal amount of Hank's balanced salt solution (HBSS: Ca^2+ and Mg^2+ free). The diluted blood was put into a centrifuge tube containing therein Ficoll-Hypaque(Sigma, St. Louis, Mo., U.S.A.) layer having a density of 1.077 piled up on Ficoll-Hypaque layer having a density of 1.119, and then centrifuged at 700×g for 30 minutes to obtain monocytes from the layer between Ficoll-Hypaque layer having a density of 1.077 and serum layer, and neutrophils from the layer between Ficoll-Hypaque layer having a density of 1.077 and that having a density of 1.119. The separated cells were washed twice with 4° C. HBSS(Ca^2+ and Mg^2+ free) and suspended in RPMI 1640 medium(Gibco, Grand Island, N.Y., U.S.A.) containing 10% fetal bovine serum(FBS, Hyclone, Logan, Utah, U.S.A.). […] The amount of H2 O2 was determined by a microassay employing 96-well microplate as follows. […] When the incubation was completed, 3M NaOH was added to the wells in an amount of 25 μl/well to stop the reaction and O.D. was measured at 620 nm by using ELISA reader(Dynatech Lab. Inc.) to determine the change of colors with respect to the oxidation of phenol. The amount of H2 O2 was determined by employing a standard curve prepared by diluted H2 O2 (Sigma). […]

In assay [2] the test system is O2^- production in human monocytes and macrophages. Briefly: Production of O2^- in silica-stimulated human monocytes and macrophages. The format is cell-based. Particulars: 10 μg/ml, 1 hour, 100 μg/ml silica, FIG. 5. How it is done: Normal human peripheral blood was heparin-treated and diluted with equal amount of Hank's balanced salt solution (HBSS: Ca^2+ and Mg^2+ free). The diluted blood was put into a centrifuge tube containing therein Ficoll-Hypaque(Sigma, St. Louis, Mo., U.S.A.) layer having a density of 1.077 piled up on Ficoll-Hypaque layer having a density of 1.119, and then centrifuged at 700×g for 30 minutes to obtain monocytes from the layer between Ficoll-Hypaque layer having a density of 1.077 and serum layer, and neutrophils from the layer between Ficoll-Hypaque layer having a density of 1.077 and that having a density of 1.119. The separated cells were washed twice with 4° C. HBSS(Ca^2+ and Mg^2+ free) and suspended in RPMI 1640 medium(Gibco, Grand Island, N.Y., U.S.A.) containing 10% fetal bovine serum(FBS, Hyclone, Logan, Utah, U.S.A.). The suspensions were added to the wells of 24-well incubation plate(Costar, Cambridge, Mass., U.S.A.) and incubated at 37° C. for 2 hours to obtain monocytes, macrophages and neutrophils. […] The change of color of the supernatant caused by the reduction of cytochrome C was measured at 550 nm by using a UV-Visible spectrophotometer (Kontron Instrument, Milano, Italy). […]

Assay [3] deals with serum glutamic-oxaloacetic transaminase (sGOT). Nature of the assay: CCl4-induced hepatocirrhosis in rat, serum GOT. The format is in vivo, Sprague-Dawley rat. Conditions: vs CCl4, DMSO and PBS control; 0.2 ml orally twice a week, 13 weeks; FIG. 10. The text has this:
Hepatocirrhosis(hepatic sclerosis) is characterized by the fibrosis of whole liver, complete disruption of liver parenchyma by fibrous septa, and formation of regenerative nodules. It is derived mostly from a chronic hepatitis or chronic alcoholism, however, the precise causes thereof are unknown. In a hepatocirrhosis patient, the amount of cytokines, e.g., TNF-α, which is involved in inflammation and fibrosis, is in an increased state; and, therefore, the inhibition of hepatocirrhosis by acanthoic acid may be determined by the inhibitory activity to TNF-α. To induce the experimental hepatocirrhosis in accordance with the method of Nakataukasa, H., et al. as described in J. Clin. Invest., 85, 1833-1843(1990), 1.0 ml/100 g of body weight of CCl4 solution(50% CCl4 +50% corn oil) was injected intraperitoneally to 4 week old male Sprague-Dawley rats twice a week, and 0.2 ml each of methanol extract of A. koreanum Nakai and acanthoic acid was administered orally at the time of the injection of CCl4 twice a week. After 13 weeks from the start of the test, each of the rats was anesthetized with ether and the blood samples were obtained from the heart to determine serum glutamic-oxaloacetic transaminase(sGOT) value and serum glutamic-pyruvic transaminase(sGPT) value(FIG. 10).

`C=C[C@@]1(C)CC=C2C(CCC3[C@](C)(C(=O)O)CCC[C@@]23C)C1` (single isomer, unassigned; (-)) [acanthoic acid, (-)-pimara-9(11),15-diene-19-oic acid]: in assay [1], the “amount of H2O2” value is given as “decrease significantly”. The “amount of O2^-” value in assay [2] is “decrease significantly”. Further, the “decrease of sGOT value” in assay [3] stood at 30%.
